# Values joined by “and” are separate entries in the source; they are usually repeats but may differ in a detail not shown here. Equal entries are not always repeated. Where two headings read alike, the source gives them in different places.
# Columns and labels:
# [1] = biological target: human serotonin reuptake transporter (Homo sapiens, UniProt P31645); test: cell-based; settings: recombinant human serotonin transporter (SERT); read-out: Human IC50 (nM) hSERT
# [2] = biological target: T1, 5-HT Transporter (SERT) Sites in Mouse Brain (Mus musculus, UniProt Q60857); test: Ex vivo [3H] citalopram binding after oral dosing; design: species or system C57BL/6 mice; settings: for % Transporter Occupancy, SERT: 60 minutes after treatment, vs vehicle; for Mean Specific Binding (dpm) ± S.E.M., SERT: mice sacrificed 60 minutes after treatment, cortex
# T1 construct: Whole brains were removed and cortex and striata dissected out; from tissue; host or cells: C57BL/6 mouse frontal cortex homogenate
# [3] = biological target: T2, DA Transporter (DAT) Sites in Mouse Brain (Mus musculus, UniProt Q61327); test: Ex vivo [3H] WIN 35428 binding after oral dosing; design: species or system C57BL/6 mice; settings: for % Transporter Occupancy, DAT: 60 minutes after treatment, vs vehicle; for Mean Specific Binding (dpm) ± S.E.M., DAT: mice sacrificed 60 minutes after treatment, striatum
# T2 construct: Striatum was used to determine occupancy of DA transporter sites; from tissue; host or cells: C57BL/6 mouse striatum homogenate
# Rats [4] = test: Rat forced swim test; type: in vivo; settings: PO, 24 hours and 30-60 minutes before the 5 minute test
# mice [5] = test: Mouse tail suspension test; type: in vivo; settings: PO, 30-60 minutes before the test, 5 minutes recording
# mice [6] = test: Mouse locomotor activity; type: in vivo; settings: PO
# Method: (§1) In order to ensure effects of the compounds on immobility time were not related to a general stimulant effect on baseline motor activity, locomotor activity was assessed using photocell monitored cages (Med-Associates Inc.). Each test chamber was equipped with infrared photocell beams to measure movement of the animals. Horizontal and vertical activity were measured
# (§2) Rats or mice were pretreated with vehicle or test compounds and placed back in home cage, following which they will be individually placed in locomotor cages and activity was monitored in 5 minute intervals for up to 60 min.
# (§3) Data were analyzed by one way analysis of variance (ANOVA) followed by post-hoc comparisons where appropriate. An effect was considered significant if p < 0.05. Data are represented as the mean and standard error to the mean (s.e.m).
# Rats [7] = test: Rat locomotor activity; type: in vivo; settings: PO
# Method: as §1, §2, §3
# [8] = biological target: Norepinephrine Transporter (NET) Sites in Mouse Brain (Mus musculus, UniProt O55192); settings: PO; for % Transporter Occupancy, NET: 60 minutes after treatment, vs vehicle; for Mean Specific Binding (dpm) ± S.E.M., NET: mice sacrificed 60 minutes after treatment, cortex
# dopamine transporter = biological target: T3, dopamine transporter (Rattus norvegicus, UniProt P23977); test: biochemical; settings: Rat IC50 (nM) rDAT, rat synaptosomes, dopamine transporter (DAT)
# T3 construct: synaptosomes isolated in a 0.32 M sucrose buffer from a male Wistar rat striatum; from tissue; host or cells: male Wistar rat striatum synaptosomes
# [9] = biological target: T4, human dopamine reuptake transporter (Homo sapiens, UniProt Q01959); test: cell-based; settings: recombinant human dopamine transporter (DAT); read-out: Human IC50 (nM) hDAT
# T4 construct: expressed in transfected cells; host or cells: CHO-K1 or HEK293
# serotonin transporter = biological target: T5, serotonin transporter (Rattus norvegicus, UniProt P31652); test: biochemical; settings: Rat IC50 (nM) rSERT, rat synaptosomes, serotonin transporter (SERT)
# T5 construct: synaptosomes isolated in a 0.32M sucrose buffer from a male Wistar rat cortex; from tissue; host or cells: male Wistar rat cortex synaptosomes
# T5 sequence (P31652 whole entry): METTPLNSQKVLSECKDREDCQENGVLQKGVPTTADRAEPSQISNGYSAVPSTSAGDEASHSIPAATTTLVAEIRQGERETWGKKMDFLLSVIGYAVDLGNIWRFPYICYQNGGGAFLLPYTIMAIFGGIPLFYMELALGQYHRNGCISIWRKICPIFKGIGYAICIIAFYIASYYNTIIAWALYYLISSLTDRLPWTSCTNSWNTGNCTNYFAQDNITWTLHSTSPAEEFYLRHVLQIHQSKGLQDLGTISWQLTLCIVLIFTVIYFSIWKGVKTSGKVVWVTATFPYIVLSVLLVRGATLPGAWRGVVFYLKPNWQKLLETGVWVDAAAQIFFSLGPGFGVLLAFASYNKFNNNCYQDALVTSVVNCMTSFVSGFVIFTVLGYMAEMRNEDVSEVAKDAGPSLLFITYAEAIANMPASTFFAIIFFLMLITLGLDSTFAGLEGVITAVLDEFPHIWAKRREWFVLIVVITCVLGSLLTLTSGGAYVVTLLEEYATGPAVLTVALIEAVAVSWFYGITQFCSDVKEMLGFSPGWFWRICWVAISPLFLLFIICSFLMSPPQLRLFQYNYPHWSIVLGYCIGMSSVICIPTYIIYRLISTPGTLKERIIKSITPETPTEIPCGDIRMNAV
# T2 sequence (Q61327 whole entry): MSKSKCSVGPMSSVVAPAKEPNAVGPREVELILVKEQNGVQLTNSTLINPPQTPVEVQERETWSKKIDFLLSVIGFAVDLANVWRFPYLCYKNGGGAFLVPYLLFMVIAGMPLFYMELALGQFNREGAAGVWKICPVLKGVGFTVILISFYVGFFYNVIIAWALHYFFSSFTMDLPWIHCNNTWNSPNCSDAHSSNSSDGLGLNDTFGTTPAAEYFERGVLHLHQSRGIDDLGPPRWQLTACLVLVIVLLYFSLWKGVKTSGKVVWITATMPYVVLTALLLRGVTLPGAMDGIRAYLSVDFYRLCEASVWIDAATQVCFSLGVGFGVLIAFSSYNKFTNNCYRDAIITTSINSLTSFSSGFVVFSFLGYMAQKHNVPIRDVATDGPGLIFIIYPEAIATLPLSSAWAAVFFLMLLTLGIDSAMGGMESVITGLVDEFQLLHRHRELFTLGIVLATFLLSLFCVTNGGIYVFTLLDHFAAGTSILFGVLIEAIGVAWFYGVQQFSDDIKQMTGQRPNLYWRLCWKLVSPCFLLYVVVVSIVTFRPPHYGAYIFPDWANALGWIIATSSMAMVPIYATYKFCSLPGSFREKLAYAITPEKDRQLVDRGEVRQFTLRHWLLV
# Chain of Norepinephrine Transporter (NET) Sites in Mouse Brain (O55192 whole entry): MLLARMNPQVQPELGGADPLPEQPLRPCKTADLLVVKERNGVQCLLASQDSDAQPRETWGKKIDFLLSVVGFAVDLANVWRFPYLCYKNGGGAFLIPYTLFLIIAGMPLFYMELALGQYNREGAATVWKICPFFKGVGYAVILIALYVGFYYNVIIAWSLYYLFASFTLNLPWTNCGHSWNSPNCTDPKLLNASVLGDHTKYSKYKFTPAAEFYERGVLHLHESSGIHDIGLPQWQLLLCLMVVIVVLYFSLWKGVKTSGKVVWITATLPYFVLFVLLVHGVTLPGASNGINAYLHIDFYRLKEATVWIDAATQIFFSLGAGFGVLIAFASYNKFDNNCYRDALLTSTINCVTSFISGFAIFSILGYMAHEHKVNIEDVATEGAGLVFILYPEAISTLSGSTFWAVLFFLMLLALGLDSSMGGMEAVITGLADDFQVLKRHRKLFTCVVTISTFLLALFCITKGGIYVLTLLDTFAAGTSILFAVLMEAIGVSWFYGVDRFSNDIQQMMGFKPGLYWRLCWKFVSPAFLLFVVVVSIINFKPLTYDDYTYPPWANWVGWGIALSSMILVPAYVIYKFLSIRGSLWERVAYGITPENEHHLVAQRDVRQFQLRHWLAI
# T1 sequence (Q60857 whole entry): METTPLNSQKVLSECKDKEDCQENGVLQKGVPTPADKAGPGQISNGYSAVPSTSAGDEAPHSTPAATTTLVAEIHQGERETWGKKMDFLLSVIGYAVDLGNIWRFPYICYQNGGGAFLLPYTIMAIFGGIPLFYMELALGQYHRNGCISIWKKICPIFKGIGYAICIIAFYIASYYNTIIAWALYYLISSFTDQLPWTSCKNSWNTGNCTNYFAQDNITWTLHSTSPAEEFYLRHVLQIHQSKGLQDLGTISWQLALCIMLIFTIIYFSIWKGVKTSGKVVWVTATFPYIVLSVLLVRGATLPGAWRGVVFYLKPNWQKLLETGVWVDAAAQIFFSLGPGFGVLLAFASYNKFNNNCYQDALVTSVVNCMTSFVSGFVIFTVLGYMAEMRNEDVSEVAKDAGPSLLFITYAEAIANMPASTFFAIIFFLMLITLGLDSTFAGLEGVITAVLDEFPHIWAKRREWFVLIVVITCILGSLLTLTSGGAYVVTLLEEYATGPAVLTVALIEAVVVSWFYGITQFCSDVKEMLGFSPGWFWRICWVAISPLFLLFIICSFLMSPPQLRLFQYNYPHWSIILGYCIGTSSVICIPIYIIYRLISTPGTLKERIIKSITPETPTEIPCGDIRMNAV
# Chain of human serotonin reuptake transporter (P31645 whole entry): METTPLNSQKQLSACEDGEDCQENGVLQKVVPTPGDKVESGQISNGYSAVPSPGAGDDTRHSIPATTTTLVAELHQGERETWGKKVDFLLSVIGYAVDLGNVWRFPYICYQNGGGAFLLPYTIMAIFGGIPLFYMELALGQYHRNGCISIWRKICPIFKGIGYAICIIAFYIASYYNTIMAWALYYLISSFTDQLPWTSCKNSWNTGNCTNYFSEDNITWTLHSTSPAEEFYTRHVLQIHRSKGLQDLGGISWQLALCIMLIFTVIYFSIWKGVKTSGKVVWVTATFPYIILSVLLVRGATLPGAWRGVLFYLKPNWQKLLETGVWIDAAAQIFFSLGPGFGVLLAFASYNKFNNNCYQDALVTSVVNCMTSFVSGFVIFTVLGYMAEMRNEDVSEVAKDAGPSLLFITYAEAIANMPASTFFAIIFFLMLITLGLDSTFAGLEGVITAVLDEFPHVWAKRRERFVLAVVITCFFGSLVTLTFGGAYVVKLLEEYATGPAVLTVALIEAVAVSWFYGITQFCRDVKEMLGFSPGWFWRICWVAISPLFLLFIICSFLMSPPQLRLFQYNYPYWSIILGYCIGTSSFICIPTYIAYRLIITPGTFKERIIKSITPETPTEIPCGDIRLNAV
# T3 sequence (P23977 whole entry): as the sequence (Q61327 whole entry) above, with P21S, V57A, S194A, R600H, V619L counted along it
# T4 sequence (Q01959 whole entry): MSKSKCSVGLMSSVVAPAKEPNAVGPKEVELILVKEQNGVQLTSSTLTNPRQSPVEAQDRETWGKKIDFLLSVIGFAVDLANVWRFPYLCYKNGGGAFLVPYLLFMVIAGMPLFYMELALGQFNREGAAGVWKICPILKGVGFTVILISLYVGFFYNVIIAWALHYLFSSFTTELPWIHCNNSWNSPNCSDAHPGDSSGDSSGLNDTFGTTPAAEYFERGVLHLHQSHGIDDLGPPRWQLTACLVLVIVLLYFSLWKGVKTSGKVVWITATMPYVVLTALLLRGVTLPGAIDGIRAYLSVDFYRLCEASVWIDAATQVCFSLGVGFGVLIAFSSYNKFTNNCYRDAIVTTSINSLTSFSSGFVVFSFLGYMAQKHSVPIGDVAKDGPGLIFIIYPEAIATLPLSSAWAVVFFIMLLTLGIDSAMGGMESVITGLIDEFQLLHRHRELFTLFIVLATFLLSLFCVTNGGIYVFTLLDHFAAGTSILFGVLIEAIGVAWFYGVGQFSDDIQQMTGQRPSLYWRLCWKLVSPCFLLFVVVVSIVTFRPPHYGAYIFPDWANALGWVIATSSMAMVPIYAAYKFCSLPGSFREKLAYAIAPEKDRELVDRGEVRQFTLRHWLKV
smiles,measurement,setting,value
"CN(C)C[C@]1(c2ccc3ccccc3c2)CC[C@](C)(O)CC1 [Compound 225, 4-((dimethylamino)methyl)-1-methyl-4-(naphthalen-2-yl)cyclohexanol]",IC50,[1],7 nM
same,"% Transporter Occupancy, SERT",[2]; 1 mg/kg,17%
same,"Mean Specific Binding (dpm) ± S.E.M., SERT",[2]; 1 mg/kg,3842 ± 152 dpm
same,"% Transporter Occupancy, SERT",[2]; 3 mg/kg,54%
same,"Mean Specific Binding (dpm) ± S.E.M., SERT",[2]; 3 mg/kg,2118 ± 139 dpm
same,"% Transporter Occupancy, SERT",[2]; 10 mg/kg,81%
same,"Mean Specific Binding (dpm) ± S.E.M., SERT",[2]; 10 mg/kg,904 ± 35 dpm
same,"% Transporter Occupancy, SERT",[2]; 30 mg/kg,91%
same,"Mean Specific Binding (dpm) ± S.E.M., SERT",[2]; 30 mg/kg,414 ± 37 dpm
same,"% Transporter Occupancy, DAT",[3]; 1 mg/kg,3%
same,"Mean Specific Binding (dpm) ± S.E.M., DAT",[3]; 1 mg/kg,19787 ± 3338 dpm
same,"% Transporter Occupancy, DAT",[3]; 3 mg/kg,-6%
same,"Mean Specific Binding (dpm) ± S.E.M., DAT",[3]; 3 mg/kg,21666 ± 3698 dpm
same,"% Transporter Occupancy, DAT",[3]; 10 mg/kg,8%
same,"Mean Specific Binding (dpm) ± S.E.M., DAT",[3]; 10 mg/kg,18872 ± 2775 dpm
same,"% Transporter Occupancy, DAT",[3]; 30 mg/kg,29%
same,"Mean Specific Binding (dpm) ± S.E.M., DAT",[3]; 30 mg/kg,14618 ± 1209 dpm
same,Rat Forced Swim (Means ± S.E.M.) Climbing,Rats [4]; 3 mg/kg,8.4 ± 1.7
same,Rat Forced Swim (Means ± S.E.M.) Immobility,Rats [4]; 3 mg/kg,50.8 ± 1.8
same,Rat Forced Swim (Means ± S.E.M.) Climbing,Rats [4]; 10 mg/kg,11.1 ± 2.7
same,Rat Forced Swim (Means ± S.E.M.) Immobility,Rats [4]; 10 mg/kg,47.6 ± 3.0
same,Rat Forced Swim (Means ± S.E.M.) Swimming,Rats [4]; 10 mg/kg,1.2 ± 0.6
same,Rat Forced Swim (Means ± S.E.M.) Climbing,Rats [4]; 30 mg/kg,25.0 ± 4.6
same,Rat Forced Swim (Means ± S.E.M.) Immobility,Rats [4]; 30 mg/kg,33.4 ± 4.8
same,Rat Forced Swim (Means ± S.E.M.) Swimming,Rats [4]; 30 mg/kg,1.1 ± 0.5
same,Mouse Tail Suspension Mean Immobility Time ± S.E.M.,mice [5]; 0.3 mg/kg,188.1 ± 8.0
same,Mouse Tail Suspension Mean Immobility Time ± S.E.M.,mice [5]; 1 mg/kg,186.5 ± 5.2
same,Mouse Tail Suspension Mean Immobility Time ± S.E.M.,mice [5]; 3 mg/kg,158.5 ± 4.9 and 155.2 ± 6.0
same,Mouse Tail Suspension Mean Immobility Time ± S.E.M.,mice [5]; 10 mg/kg,137.8 ± 5.2
same,Mouse Tail Suspension Mean Immobility Time ± S.E.M.,mice [5]; 30 mg/kg,136.3 ± 2.5
same,Mouse Locomotor Activity Total Distance Traveled ± S.E.M.,mice [6]; 0.3 mg/kg,519.5 ± 56.4
same,Mouse Locomotor Activity Total Distance Traveled ± S.E.M.,mice [6]; 1 mg/kg,423.4 ± 62.3
same,Mouse Locomotor Activity Total Distance Traveled ± S.E.M.,mice [6]; 10 mg/kg,234.2 ± 49.4
same,Mouse Locomotor Activity Total Distance Traveled ± S.E.M.,mice [6]; 30 mg/kg,177.4 ± 47.8
same,Rat Locomotor Activity Total Distance Traveled ± S.E.M.,Rats [7]; 3 mg/kg,1783.4 ± 182.7
same,Rat Locomotor Activity Total Distance Traveled ± S.E.M.,Rats [7]; 10 mg/kg,1628.5 ± 159.2
same,Rat Locomotor Activity Total Distance Traveled ± S.E.M.,Rats [7]; 30 mg/kg,2182.8 ± 151.2
same,"% Transporter Occupancy, NET",[8]; 1 mg/kg,25%
same,"Mean Specific Binding (dpm) ± S.E.M., NET",[8]; 1 mg/kg,1170 ± 68 dpm
same,"% Transporter Occupancy, NET",[8]; 3 mg/kg,48%
same,"Mean Specific Binding (dpm) ± S.E.M., NET",[8]; 3 mg/kg,813 ± 64 dpm
same,"% Transporter Occupancy, NET",[8]; 10 mg/kg,75%
same,"Mean Specific Binding (dpm) ± S.E.M., NET",[8]; 10 mg/kg,393 ± 21 dpm
same,"% Transporter Occupancy, NET",[8]; 30 mg/kg,85%
same,"Mean Specific Binding (dpm) ± S.E.M., NET",[8]; 30 mg/kg,230 ± 33 dpm
"CN(C)CC1(c2ccc(Cl)c(Cl)c2)CCC(F)CC1 (stereo not shown) [Compound 254, 1-(1-(3,4-dichlorophenyl)-4-fluorocyclohexyl)-N,N-dimethylmethanamine]",IC50,[1],294 nM
same,IC50,dopamine transporter,100 nM
same,IC50,[9],< 1 nM
"CNC(C)C1(c2ccc3ccccc3c2)CCCCC1 (single isomer, unassigned) [58 E2, N-methyl-1-(1-(naphthalen-2-yl)cyclohexyl)ethanamine]",IC50,serotonin transporter,100 nM
